Key:
[1] = system: A549 cells; assay: Measurement of PGE2-increasing activity in A549 cells (IL-1β stimulated, PGE2 quantified in supernatant); assay type: cell-based; settings: Homo sapiens, 24 h; concentration of 1 µM of each compound; IL-1β treated A549 cells; read-out: Increased PGE2 production in A549 cells
How it was run: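 A549 cells grown 24 h in F12K with 10% FBS, then switched to serum-free medium with or without IL-1β and compound (0.1% DMSO final). After 24 h at 37 °C, 5% CO2, supernatant PGE2 quantified by immunoassay.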

[2] = target: T1, human 15-PGDH (Homo sapiens, UniProt P15428); assay: Evaluation of 15-PGDH inhibitory activity (fluorescence enzyme assay, NAD+/PGE2); assay type: biochemical; settings: human 15-PGDH enzyme, fluorescence Vmax
T1 construct: purchased R&D System 5660-DH
T1 sequence (P15428 1-266): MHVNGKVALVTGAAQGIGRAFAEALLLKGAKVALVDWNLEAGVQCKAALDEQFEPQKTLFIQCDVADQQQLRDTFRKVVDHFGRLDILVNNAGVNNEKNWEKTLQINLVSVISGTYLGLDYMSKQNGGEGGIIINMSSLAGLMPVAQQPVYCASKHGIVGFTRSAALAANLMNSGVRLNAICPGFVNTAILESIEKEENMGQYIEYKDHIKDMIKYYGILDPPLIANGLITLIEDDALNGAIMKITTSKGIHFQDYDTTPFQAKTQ
Procedure: 15-PGDH inhibition activity of Example compounds was measured as follows. 6.7 ng of human 15-PGDH (R&D System# 5660-DH) enzyme (10 µL) was added to a black 96 well plate, 60 µL of buffer (50 mM Tris-HCl, pH 7.5, 0.01% Tween 20) was added, and 10 µL of 200 µM β-Nicotinamide adenine dinucleotide sodium salt (Sigma, Cat# N0632-5G) was added. 10 µL of (10x) compound solution in DMSO was added and reacted for 10 minutes at room temperature.

For O=C(NCC1CC1)c1cccc(-c2cccc3c(C(=O)N4CCCCC4)cnn23)c1 [Example 32, N-(cyclopropylmethyl)-3-(3-(piperidine-1-carbonyl)pyrazolo[1,5-a]pyridin-7-yl)benzamide], the fold induction at 1 µM [1] was < 1.5 and the IC50 [2] was ≤ 100 nM.

In the case of CN1CCC(Nc2cccc3c(C(=O)N4CCCCC4)cnn23)CC1 [Example 150, (7-((1-methylpiperidin-4-yl)amino)pyrazolo[1,5-a]pyridin-3-yl)(piperidin-1-yl)methanone], the fold induction at 1 µM [1] is reported as < 1.5 and the IC50 [2] is reported as 100 to 1000 nM.

For Cn1cnc2cc(-c3cccc4c(C(=O)N5CCCCC5)cnn34)ccc2c1=O [Example 251, 3-methyl-7-(3-(piperidine-1-carbonyl)pyrazolo[1,5-a]pyridin-7-yl)quinazolin-4(3H)-one], the fold induction at 1 µM [1] was > 1.5 and the IC50 [2] was ≤ 100 nM.

With O=C(c1cnn2c(-c3cnc(-c4nnc(C(F)F)[s+]4[O-])nc3)cccc12)N1CCCCC1 (centres unmarked) [Example 404, [7-[2-[5-(difluoromethyl)-1-oxo-1,3,4-thiadiazol-2-yl]pyrimidin-5-yl]pyrazolo[1,5-a]pyridin-3-yl]-(1-piperidyl)methanone] the fold induction at 1 µM [1] was > 1.5 and the IC50 [2] was ≤ 100 nM.

For CN1CCN(c2ccc(-c3cccc4c(C(=O)N5CCCCC5)cnn34)cn2)CC1 [Example 111, (7-(6-(4-methylpiperazin-1-yl)pyridin-3-yl)pyrazolo[1,5-a]pyridin-3-yl)(piperidin-1-yl)methanone], the fold induction at 1 µM [1] was > 1.5 and the IC50 [2] was ≤ 100 nM.

CC(C)NC(=O)c1cccc(-c2cccc3c(C(=O)N4CCCCC4)cnn23)c1 [Example 28, N-isopropyl-3-(3-(piperidine-1-carbonyl)pyrazolo[1,5-a]pyridin-7-yl)benzamide] was tested, and the fold induction at 1 µM [1] was > 1.5 and the IC50 [2] was ≤ 100 nM.

For N#Cc1ccc(-c2cccc3c(C(=O)N4CCCCC4)cnn23)c(F)c1 [Example 285, 3-fluoro-4-[3-(piperidine-1-carbonyl)pyrazolo[1,5-a]pyridin-7-yl]benzonitrile], the fold induction at 1 µM [1] was > 1.5 and the IC50 [2] was ≤ 100 nM.

In the case of O=C(COc1ccc(Cl)cc1)Nc1ccc(-c2cccc3c(C(=O)N4CCCCC4)cnn23)cn1 [Example 410, 2-(4-chlorophenoxy)-N-[5-[3-(piperidine-1-carbonyl)pyrazolo[1,5-a]pyridin-7-yl]-2-pyridyl]acetamide], the fold induction at 1 µM [1] is reported as > 1.5 and the IC50 [2] is reported as ≤ 100 nM.

For Nc1cnn(-c2cc(-c3cccc4c(C(=O)N5CCCCC5)cnn34)cc(Br)n2)c1 [Example 356, (7-(2-(4-amino-1H-pyrazol-1-yl)-6-bromopyridin-4-yl)pyrazolo|[1,5-a]pyridin-3-yl)(piperidin-1-yl)methanone], the fold induction at 1 µM [1] was > 1.5 and the IC50 [2] was ≤ 100 nM.

For O=C(c1cnn2c(-c3ccc(N4CCCCC4)nc3)cccc12)N1CCCCC1 [Example 110, piperidin-1-yl(7-(6-(piperidin-1-yl)pyridin-3-yl)pyrazolo[1,5-a]pyridin-3-yl)methanone], the fold induction at 1 µM [1] was < 1.5 and the IC50 [2] was ≤ 100 nM.

In the case of O=C(c1cnn2c(-c3ccc(Cl)nc3F)cccc12)N1CCCCC1 [Example 315, (7-(6-chloro-2-fluoropyridin-3-yl)pyrazolo[1,5-a]pyridin-3-yl)(piperidin-1-yl)methanone], the fold induction at 1 µM [1] is reported as > 1.5 and the IC50 [2] is reported as ≤ 100 nM.

In the case of N#CCCNC(=O)c1cccc(-c2cccc3c(C(=O)N4CCCCC4)cnn23)c1 [Example 36, N-(2-cyanoethyl)-3-(3-(piperidine-1-carbonyl)pyrazolo[1,5-a]pyridin-7-yl)benzamide], the fold induction at 1 µM [1] is reported as > 1.5 and the IC50 [2] is reported as ≤ 100 nM.

For CNC(=O)c1cncc(-c2cccc3c(C(=O)N4CCCCC4)cnn23)c1 [Example 40, N-methyl-5-(3-(piperidine-1-carbonyl)pyrazolo[1,5-a]pyridin-7-yl)nicotinamide], the fold induction at 1 µM [1] was > 1.5 and the IC50 [2] was ≤ 100 nM.

In the case of CC(C)N1CCc2ccc(-c3cccc4c(C(=O)N5CCCCC5)cnn34)cc2C1=O [Example 133, 2-isopropyl-7-(3-(piperidine-1-carbonyl)pyrazolo[1,5-a]pyridin-7-yl)-3,4-dihydroisoquinolin-1(2H)-one], the fold induction at 1 µM [1] is reported as > 1.5 and the IC50 [2] is reported as ≤ 100 nM.

For Cn1cnc2ncc(-c3cccc4c(C(=O)N5CCCCC5)cnn34)cc2c1=O [Example 255, 3-methyl-6-(3-(piperidine-1-carbonyl)pyrazolo[1,5-a]pyridin-7-yl)pyrido[2,3-d]pyrimidin-4(3H)-one], the fold induction at 1 µM [1] was > 1.5 and the IC50 [2] was ≤ 100 nM.

COCCC(=O)Nc1ccc(-c2cccc3c(C(=O)N4CCCCC4)cnn23)cn1 [Example 103, 3-methoxy-N-(5-(3-(piperidine-1-carbonyl)pyrazolo[1,5-a]pyridin-7-yl)pyridin-2-yl)propanamide] was tested, and the fold induction at 1 µM [1] was < 1.5 and the IC50 [2] was ≤ 100 nM.

In the case of O=C(c1cnn2c(-c3cncc(-c4ncon4)c3)cccc12)N1CCCCC1 [Example 374, (7-(5-(1,2,4-oxadiazol-3-yl)pyridin-3-yl)pyrazolo[1,5-a]pyridin-3-yl)(piperidin-1-yl)methanone], the fold induction at 1 µM [1] is reported as > 1.5 and the IC50 [2] is reported as ≤ 100 nM.

In the case of O=C(Nc1ccncc1)c1cccc(-c2cccc3c(C(=O)N4CCCCC4)cnn23)c1 [Example 38, 3-(3-(piperidine-1-carbonyl)pyrazolo[1,5-a]pyridin-7-yl)-N-(pyridin-4-yl)benzamide], the fold induction at 1 µM [1] is reported as > 1.5 and the IC50 [2] is reported as ≤ 100 nM.

With O=C(c1cnn2c(-c3cnc(-c4n[nH]c(=O)o4)c(F)c3)cccc12)N1CCCCC1 [Example 373, 5-[3-fluoro-5-[3-(piperidine-1-carbonyl)pyrazolo[1,5-a]pyridin-7-yl]-2-pyridyl]-3H-1,3,4-oxadiazol-2-one] the fold induction at 1 µM [1] was > 1.5 and the IC50 [2] was ≤ 100 nM.

In the case of O=C(c1cncc(-c2cccc3c(C(=O)N4CCCCC4)cnn23)c1)N1CCNCC1 [Example 48, piperazin-1-yl(5-(3-(piperidine-1-carbonyl)pyrazolo[1,5-a]pyridin-7-yl)pyridin-3-yl)methanone], the fold induction at 1 µM [1] is reported as < 1.5 and the IC50 [2] is reported as ≤ 100 nM.

For Cc1nnc(-c2ccc(-c3cccc4c(C(=O)N5CCCCC5)cnn34)cn2)o1 [Example 364, [7-[6-(5-methyl-1,3,4-oxadiazol-2-yl)-3-pyridyl]pyrazolo[1,5-a]pyridin-3-yl]-(1-piperidyl)methanone], the fold induction at 1 µM [1] was > 1.5 and the IC50 [2] was ≤ 100 nM.

Nc1n[nH]c2cc(-c3cccc4c(C(=O)N5CCCCC5)cnn34)ccc12 [Example 309, [7-(3-amino-1H-indazol-6-yl)pyrazolo[1,5-a]pyridin-3-yl]-(1-piperidyl)methanone] was tested, and the fold induction at 1 µM [1] was > 1.5 and the IC50 [2] was ≤ 100 nM.

For O=C(Nc1ccncc1)c1cncc(-c2cccc3c(C(=O)N4CCCCC4)cnn23)c1 [Example 54, 5-(3-(piperidine-1-carbonyl)pyrazolo[1,5-a]pyridin-7-yl)-N-(pyridin-4-yl)nicotinamide], the fold induction at 1 µM [1] was > 1.5 and the IC50 [2] was ≤ 100 nM.

With CC(C)N1CCN(C(=O)c2ccc(-c3cccc4c(C(=O)N5CCCCC5)cnn34)cc2)CC1 [Example 68, (4-isopropylpiperazin-1-yl)(4-(3-(piperidine-1-carbonyl)pyrazolo[1,5-a]pyridin-7-yl)phenyl)methanone] the fold induction at 1 µM [1] was > 1.5 and the IC50 [2] was ≤ 100 nM.

With O=C(c1cnn2c(-c3ccc(-c4n[nH]c(=O)o4)nc3)cccc12)N1CCCCC1 [Example 360, 5-[5-[3-(piperidine-1-carbonyl)pyrazolo[1,5-a]pyridin-7-yl]-2-pyridyl]-3H-1,3,4-oxadiazol-2-one] the fold induction at 1 µM [1] was > 1.5 and the IC50 [2] was ≤ 100 nM.

For O=C1NCc2ccc(-c3cccc4c(C(=O)N5CCCC(F)C5)cnn34)cc21 (centres unmarked) [Example 378, 6-(3-(3-fluoropiperidine-1-carbonyl)pyrazolo[1,5-a]pyridin-7-yl)isoindolin-1-one], the fold induction at 1 µM [1] was > 1.5 and the IC50 [2] was ≤ 100 nM.

CN1CCC(NC(=O)c2cccc(-c3cccc4c(C(=O)N5CCCCC5)cnn34)c2)CC1 [Example 33, N-(1-methylpiperidin-4-yl)-3-(3-(piperidine-1-carbonyl)pyrazolo[1,5-a]pyridin-7-yl)benzamide] was tested, and the fold induction at 1 µM [1] was > 1.5 and the IC50 [2] was ≤ 100 nM.

CN(C)CC(=O)Nc1cncc(-c2cccc3c(C(=O)N4CCCCC4)cnn23)c1 [Example 196, 2-(dimethylamino)-N-(5-(3-(piperidine-1-carbonyl)pyrazolo[1,5-a]pyridin-7-yl)pyridin-3-yl)acetamide] was tested, and the fold induction at 1 µM [1] was > 1.5 and the IC50 [2] was ≤ 100 nM.

For O=C1CN(C(=O)c2cncc(-c3cccc4c(C(=O)N5CCCCC5)cnn34)c2)CCN1 [Example 203, 4-[5-[3-(piperidine-1-carbonyl)pyrazolo[1,5-a]pyridin-7-yl]pyridine-3-carbonyl]piperazin-2-one], the fold induction at 1 µM [1] was > 1.5 and the IC50 [2] was ≤ 100 nM.

With O=C(c1cnn2c(-c3cnc4ccccc4c3)cccc12)N1CCCCC1 [Example 130, piperidin-1-yl(7-(quinolin-3-yl)pyrazolo[1,5-a]pyridin-3-yl)methanone] the fold induction at 1 µM [1] was > 1.5 and the IC50 [2] was ≤ 100 nM.

With O=C(Nc1ccnnc1)c1cncc(-c2cccc3c(C(=O)N4CCCCC4)cnn23)c1 [Example 56, 5-(3-(piperidine-1-carbonyl)pyrazolo[1,5-a]pyridin-7-yl)-N-(pyridazin-4-yl)nicotinamide] the fold induction at 1 µM [1] was > 1.5 and the IC50 [2] was ≤ 100 nM.

Reference: patent publication EP4653437A2 (Innovo Therapeutics Inc., priority 2023, dated 2024)
